One may read the IC50 as the concentration needed to halve the response being measured. Usually EC50 stands for the concentration needed to bring the measured effect to its halfway point.

Active and inactive are the calls of the source. The rule behind the calls is not given here.

We go through 28 compounds from ChEMBL document CHEMBL4837265 (ACS Med Chem Lett, 2021).

What all share (type): cell-based
The target of test [1] is T1, Glucocorticoid receptor (Rattus norvegicus, UniProt P06536).
T1 sequence (P06536 whole entry): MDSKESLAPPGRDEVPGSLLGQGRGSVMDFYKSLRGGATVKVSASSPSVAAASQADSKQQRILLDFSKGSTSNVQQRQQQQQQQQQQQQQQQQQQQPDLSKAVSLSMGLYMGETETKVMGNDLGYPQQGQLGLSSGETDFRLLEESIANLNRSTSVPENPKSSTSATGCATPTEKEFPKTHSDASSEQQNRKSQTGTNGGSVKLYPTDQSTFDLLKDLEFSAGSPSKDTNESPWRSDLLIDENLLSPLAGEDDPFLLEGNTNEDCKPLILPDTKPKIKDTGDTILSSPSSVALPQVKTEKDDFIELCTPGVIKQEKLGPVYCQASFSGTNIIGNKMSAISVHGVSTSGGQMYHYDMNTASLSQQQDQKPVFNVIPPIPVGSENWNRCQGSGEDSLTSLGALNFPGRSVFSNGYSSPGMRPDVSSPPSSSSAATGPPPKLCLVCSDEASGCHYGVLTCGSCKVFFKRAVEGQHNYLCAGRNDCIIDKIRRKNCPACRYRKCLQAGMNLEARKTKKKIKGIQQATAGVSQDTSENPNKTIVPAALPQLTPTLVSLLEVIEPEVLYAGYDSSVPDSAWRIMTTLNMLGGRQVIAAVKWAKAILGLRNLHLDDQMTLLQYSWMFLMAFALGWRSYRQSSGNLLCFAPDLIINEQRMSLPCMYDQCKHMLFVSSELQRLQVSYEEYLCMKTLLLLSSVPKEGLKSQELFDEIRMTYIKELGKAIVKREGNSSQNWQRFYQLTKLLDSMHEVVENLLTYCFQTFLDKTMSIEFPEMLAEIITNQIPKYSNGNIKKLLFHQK
Description: Agonist activity at glucocorticoid receptor in rat INS-1 832/13 cells transfected with CCL2-promoter luciferase plasmid construct assessed as reduction in IL-1 beta induced inflammation by luciferase reporter gene assay. For orientation: A reporter such as luciferase makes a cellular process visible.

The target in test [2] is T1, Glucocorticoid receptor. Description: Agonist activity at glucocorticoid receptor in rat INS-1 832/13 cells transfected with 3XGRE-promoter luciferase plasmid construct assessed as induction of receptor transactivation by luciferase reporter gene assay.
For test [3], the target named is T2, Glucocorticoid receptor (Rattus norvegicus) (UniProt P06536).
T2 sequence (whole entry): T1 sequence (P06536 whole entry)
Description: Agonist activity at glucocorticoid receptor in rat INS-1 832/13 cells assessed as inhibition of glucose-stimulated insulin secretion at 100 nM incubated for 18 hrs by ELISA. A general note: In an ELISA, binding on a coated surface is turned into a signal by an enzyme label.

For `COc1ccc(-n2ncc3c2C=C2CCC[C@H](C(C)(O)c4cc(F)c(F)c(OC)c4)[C@@]2(C)C3)cc1` (single isomer, unassigned), the IC50 in test [1] is 1260 nM. Moreover, in test [2], the EC50 was 10000 nM.

With `CC(C)(C)[C@H](O)[C@H]1CCCC2=Cc3c(cnn3-c3ccc(F)cc3)C[C@@]21C`, the IC50 in test [1] is 0.251 nM. In test [2], the EC50 is 794 nM.

Turning to `C[C@]12Cc3cnn(-c4ccc(F)cc4)c3C=C1CCC[C@@H]2[C@@H](O)c1ccccc1`, the IC50 in test [1] was 39.8 nM. The EC50 in test [2] is 100 nM. In addition, the inhibition entry in test [3] is “inactive”.

Regarding `C[C@]12Cc3cnn(-c4ccc(F)cc4)c3C=C1CCC[C@@H]2[C@@H](O)CC#N`, the IC50 in test [1] is 1580 nM. In test [2], the EC50 is 2510 nM.

On to `CC(C)(O)[C@H]1CCCC2=Cc3c(cnn3-c3ccc(F)cc3)C[C@@]21C`, for which, in test [1], the IC50 is 39.8 nM. In addition, the EC50 in test [2] was 63.1 nM. Moreover, in test [3], the inhibition result was “inactive”.

Turning to `Cc1ccc(-n2ncc3c2C=C2CCC[C@H](C(C)(O)c4ccsc4)[C@@]2(C)C3)cc1` (single isomer, unassigned), the concentration for half-maximal inhibition (IC50) in test [1] was 100 nM. For the same compound, the EC50 in test [2] was 1580 nM.

Consider `COc1cc([C@H](O)[C@H]2CCCC3=Cc4c(cnn4-c4ccc(C)cc4)C[C@@]32C)cc(F)c1F`, for which the 50% inhibitory concentration (IC50) in test [1] was 158 nM. For the same compound, in test [2], the EC50 was 100000 nM.

With `Cc1ccc(-n2ncc3c2C=C2CCC[C@H]([C@@H](O)c4ccsc4)[C@@]2(C)C3)cc1`, the IC50 in test [1] was 39.8 nM. Also, the EC50 in test [2] is 10000 nM.

For `COc1ccc(-n2ncc3c2C=C2CCC[C@H]([C@H](C)O)[C@@]2(C)C3)cc1`, the IC50 in test [1] is 0.158 nM. Besides, the half-maximal effective concentration (EC50) in test [2] is 251 nM.

In the case of `COc1ccc(-n2ncc3c2C=C2CCC[C@H]([C@@H](O)c4ccc(F)cc4)[C@@]2(C)C3)cc1`, the IC50 in test [1] was 79.4 nM. Also, the EC50 in test [2] was 15800 nM.

In the case of `C[C@]12Cc3cnn(-c4ccc(F)cc4)c3C=C1CCC[C@@H]2[C@](C)(O)c1ccccc1`, the half-maximal inhibitory concentration (IC50) in test [1] was 7.94 nM. In addition, in test [2], the EC50 is 3.98 nM. Besides, the inhibition entry in test [3] (filed as agonist) is “Active”.

Consider `Cc1ccc(-n2ncc3c2C=C2CCC[C@H](C(C)(O)c4ccccc4)[C@@]2(C)C3)cc1` (single isomer, unassigned), for which the IC50 in test [1] is 31.6 nM. The EC50 in test [2] was 1260 nM.

In the case of `C[C@]12Cc3cnn(-c4ccc(F)cc4)c3C=C1CCC[C@@H]2[C@](C)(O)c1ccc(F)cc1`, the IC50 in test [1] is 5.01 nM. The EC50 in test [2] is 15.8 nM.

`C[C@]12Cc3cnn(-c4ccc(F)cc4)c3C=C1CCC[C@@H]2[C@@H](O)c1ccsc1`: the IC50 in test [1] is 5.01 nM. For the same compound, the EC50 in test [2] was 126 nM.

As for `Cc1ccc(-n2ncc3c2C=C2CCC[C@H](C(C)(C)O)[C@@]2(C)C3)cc1`, the IC50 in test [1] was 63.1 nM. In addition, the EC50 in test [2] was 0.398 nM.

For the compound `COc1ccc(-n2ncc3c2C=C2CCC[C@H](C(C)(C)O)[C@@]2(C)C3)cc1`, the IC50 in test [1] was 2510 nM. Further, the EC50 in test [2] is 79.4 nM.

Regarding `Cc1ccc(-n2ncc3c2C=C2CCC[C@H]([C@@H](O)c4ccc(F)cc4)[C@@]2(C)C3)cc1`, the IC50 in test [1] was 251 nM. In addition, in test [2], the EC50 is 31600 nM.

For the compound `COc1cc([C@H](O)[C@H]2CCCC3=Cc4c(cnn4-c4ccc(F)cc4)C[C@@]32C)cc(F)c1F`, the IC50 in test [1] is 15.8 nM. Also, in test [2], the EC50 was 63.1 nM.

On to `C[C@H](O)[C@H]1CCCC2=Cc3c(cnn3-c3ccc(F)cc3)C[C@@]21C`, for which the IC50 in test [1] is 6.31 nM. Further, the EC50 in test [2] is 63.1 nM. Also, the inhibition result in test [3] is “inactive”.

`Cc1ccc(-n2ncc3c2C=C2CCC[C@H](C(C)(O)c4ccc(F)cc4)[C@@]2(C)C3)cc1` (single isomer, unassigned): the IC50 in test [1] is 631 nM. For the same compound, the EC50 in test [2] is 316 nM.

As to `COc1ccc(-n2ncc3c2C=C2CCC[C@H](C(C)(O)c4ccc(F)cc4)[C@@]2(C)C3)cc1` (single isomer, unassigned), the IC50 in test [1] was 251 nM. In addition, the EC50 in test [2] is 126 nM.

`COc1ccc(-n2ncc3c2C=C2CCC[C@H]([C@@H](O)c4ccsc4)[C@@]2(C)C3)cc1`: the IC50 in test [1] was 501 nM. In test [2], the EC50 is 10000 nM.

As for `COc1ccc(-n2ncc3c2C=C2CCC[C@H](C(C)(O)c4ccccc4)[C@@]2(C)C3)cc1` (single isomer, unassigned), the IC50 in test [1] is 501 nM. Also, the EC50 in test [2] was 5010 nM.

As for `Cc1ccc(-n2ncc3c2C=C2CCC[C@H]([C@@H](O)c4ccccc4)[C@@]2(C)C3)cc1`, the IC50 in test [1] is 398 nM. Further, in test [2], the EC50 is 10000 nM.

Regarding `COc1ccc(-n2ncc3c2C=C2CCC[C@H]([C@@H](O)c4ccccc4)[C@@]2(C)C3)cc1`, the IC50 in test [1] is 1260 nM. For the same compound, in test [2], the EC50 was 10000 nM.

As for `COc1ccc(-n2ncc3c2C=C2CCC[C@H](C(C)(O)c4ccsc4)[C@@]2(C)C3)cc1` (single isomer, unassigned), the IC50 in test [1] was 1580 nM. In addition, the EC50 in test [2] is 10000 nM.

On to `Cc1ccc(-n2ncc3c2C=C2CCC[C@H]([C@H](C)O)[C@@]2(C)C3)cc1`, for which the IC50 in test [1] was 0.2 nM. The EC50 in test [2] was 1580 nM.

In the case of `COc1cc([C@@](C)(O)[C@H]2CCCC3=Cc4c(cnn4-c4ccc(F)cc4)C[C@@]32C)cc(F)c1F`, the IC50 in test [1] was 2 nM. For the same compound, the EC50 in test [2] was 6.31 nM.
